Source: US20050129618A1, “Drugs for ameliorating itch, rough skin or hypersensitive skin or for whitening via inhibition of the production and release of stem cell factor” (Shiseido Co., ltd., priority 2001, published 2005)

Test system: SCF expression on keratinocyte membranes
Assay: Accelerated SCF expression on keratinocyte membranes by different stimulations
Assay type: cell-based, human
Settings: chemical stimulation, culturing for 24 hours; FIG. 4
Procedure: After plating 1.5 million keratinocytes on a 10 cm plate and culturing for 72 hours, the cells were stimulated by one of the following: (1) exchanging the medium with PBS(−), irradiating the culture with UVB at 20 mJ/cm^2 and then immediately exchanging the PBS(−) with medium, (2) adding forskolin, or (3) adding theophyllin. After culturing for 24 hours, the cells were collected and then dispersed in 200 μl of 50 mM phosphate buffer solution (pH 7.8)+protease inhibitor solution, and the cells were then disrupted with an ultrasonic disrupter for five 30-second disruption cycles at 4° C. After centrifugation at 10,000 g for 20 minutes at 4° C., the supernatant was further centrifuged at 100,000 g for 60 minutes at 4° C. The obtained pellet was dissolved in 100 μl of 25 mM phosphate buffer solution (pH 6.8)+0.1% Triton-X100 solution and a membrane fraction protein extract was obtained. The protein content of the solution was measured by an established method, and then the SCF amount was assayed to obtain an SCF/protein value.

## Cn1c(=O)c2[nH]cnc2n(C)c1=O [theophyllin]
  expression of SCF in the cells or on the cell membranes (SCF/protein value of membrane fraction): accelerated expression of SCF
